pIC50: −log10 of the molar value. Calls of active or inactive are those of the source.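 Rule for the calls: active = maximal percent inhibition of the deubiquitinase OTUD3 of at least 30% across the tested doses; inactive = the rest.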
Target: OTU domain-containing protein 3 (Homo sapiens) (UniProt Q5T2D3)
Assay: Validation of screening hits, potency titration, in vitro enzymatic, OTU domain-containing protein 3 DUB inhibitors (AID 1645868)
Conditions: purified OTUD3, ubiquitin-rhodamine cleavage fluorescence, 2 h

Sequence of OTU domain-containing protein 3 (Homo sapiens) (Q5T2D3 whole entry, looked up, the tested form may be a part): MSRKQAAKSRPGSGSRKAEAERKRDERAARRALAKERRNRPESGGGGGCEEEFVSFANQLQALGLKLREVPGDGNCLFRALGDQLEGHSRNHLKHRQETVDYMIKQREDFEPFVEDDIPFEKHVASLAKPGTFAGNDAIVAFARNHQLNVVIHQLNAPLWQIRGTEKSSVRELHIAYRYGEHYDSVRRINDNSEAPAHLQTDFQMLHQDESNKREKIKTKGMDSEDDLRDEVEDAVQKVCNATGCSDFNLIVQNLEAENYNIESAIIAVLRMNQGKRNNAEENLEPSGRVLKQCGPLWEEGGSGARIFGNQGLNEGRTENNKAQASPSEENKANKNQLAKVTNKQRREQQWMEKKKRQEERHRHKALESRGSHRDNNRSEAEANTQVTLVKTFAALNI

| Structure (SMILES) | IC50 | pIC50 |
| --- | --- | --- |
| CC(=O)[C@H]1c2c(c(O)c3c(O)cccc3c2-c2c3c(c(O)c4c(O)cccc24)C(=O)C[C@](C)(O)[C@H]3C(C)=O)C(=O)C[C@]1(C)O | > 50 µM (inactive) | – |
| Cc1nc(-c2ccc(C(=O)NCc3ccc(F)cc3)cc2)cs1 | > 50 µM (inactive) | – |
| O=C(CC1C(=O)Nc2nc(-c3ccccc3)nn21)Nc1cccc2ccccc12 (stereo not given) | – | 4.60 |
| O=C1CN(C(=O)COC(=O)CCCN2C(=O)c3cccc4cccc(c34)C2=O)c2ccccc2N1 | > 50 µM (inactive) | – |
| N#Cc1c(-c2cccs2)cc(-c2cccs2)[nH]c1=O | > 50 µM (inactive) | – |
| Oc1cc(OCc2cccc(C(F)(F)F)c2)ccc1-c1ccn[nH]1 | – | 4.35 |
| N#Cc1ccc(NC(=O)Nc2cccn(Cc3ccccc3Br)c2=O)cc1 | > 50 µM (inactive) | – |
| O=C(CCc1nnc2n(Cc3ccc(F)cc3)c(=O)c3ccccc3n12)N1CCN(c2ccccn2)CC1 | > 50 µM (inactive) | – |
| O=c1c2cnc(N3CCOCC3)nc2ccn1CCc1ccccc1 | – | 4.55 |
| CC1(C(=O)NCc2ccccc2)Cn2c(cc3ccccc32)C(=O)N1Cc1ccccc1 (stereo not given) | > 50 µM (inactive) | – |
| Cn1c(CCN2CCCC2)nc2cc(NC(=O)c3ccccc3)ccc21 | > 50 µM (inactive) | – |
| O=C(Cn1cnc2c(oc3ccccc32)c1=O)NCc1ccccc1Cl | – | 4.44 |
| O=C(NCc1ccco1)c1ccc2c(c1)N(Cc1cccc(F)c1)C(=O)c1ccccc1S2 | > 50 µM (inactive) | – |
| c1ccc(-c2nc(-c3nnn(-c4ccccc4)c3-c3ccncc3)no2)cc1 | – | 4.57 |
| C/C=C\C1=CC(=O)[C@]23C[C@H]2[C@]2(C)CO[C@@]1(O)[C@@]3(O)O2 | > 50 µM (inactive) | – |
| CC1=C(c2ccc(F)cc2)S(=O)(=O)NC1=NCC(=O)Nc1ccc(F)cc1 | > 50 µM (inactive) | – |
| Cn1cc(-c2noc(Cc3cccc(C(F)(F)F)c3)n2)ccc1=O | > 50 µM (inactive) | – |
| Cn1nc(-c2nc(-c3ccccc3)no2)c2c1CCN(C(=O)C1CC1)C2 | > 50 µM (inactive) | – |
| COc1ccc(C(=O)CSc2ccc3nnc(CCNC(=O)c4ccc(OC)cc4)n3n2)cc1 | > 50 µM (inactive) | – |
| CC(C)OC(=O)c1cc2c(ccn2-c2ccc(F)cc2)n1CC(=O)NC1CCCCC1 | > 50 µM (inactive) | – |
| CCOc1ccc(-n2c(C)cc(/C=C(\C#N)c3nc4ccccc4[nH]3)c2C)cc1 | > 50 µM (inactive) | – |
| O=C(CNC(=O)c1cccc(F)c1)Nc1nc2ccccc2[nH]1 | – | 4.45 |
| Cc1ccc(Nc2nc(NCCc3ccccc3)nc3c2cnn3C)cc1 | > 50 µM (inactive) | – |
| Cc1ccc(NC(=O)c2nnn(-c3ccccc3Br)c2C)cc1C | > 50 µM (inactive) | – |

| Structure (SMILES) | IC50 | pIC50 |
| --- | --- | --- |
| COc1cc(C)c2c(=O)c3c(oc2c1)C(=O)c1c(O)c(OC)cc(O)c1C3=O | – | 5.56 |
| O=C(Nc1cc(F)ccc1F)c1ccn(COc2ccc(F)c(Cl)c2)n1 | > 50 µM (inactive) | – |
| O=C1C=CC(O)C2C1CC13SSC4(CC5C(=O)C=CC(O)C5N4C1=O)C(=O)N23 (stereo not given) | > 50 µM (inactive) | – |
| O=C(NCc1cccnc1)c1cnn2c(C(F)(F)F)cc(-c3ccc(F)cc3)nc12 | > 50 µM (inactive) | – |
| Cc1nn(Cc2ccccc2)c(C)c1C(=O)NC1CCCc2ccccc21 (stereo not given) | > 50 µM (inactive) | – |
| O=S(=O)(Nc1ccc2oc(-c3ccncc3)nc2c1)c1ccccc1 | > 50 µM (inactive) | – |
| Cc1sc2nc(CN3CCCC3)nc(NCCc3ccc(Cl)cc3)c2c1C | > 50 µM (inactive) | – |
| Cc1cccc(C(=O)Nc2ccccc2Sc2nc3c(c(=O)n(C)c(=O)n3C)n2C)c1 | > 50 µM (inactive) | – |
| Cc1cc(C2CC(=O)Nc3c2c(C)nn3-c2nc3ccccc3[nH]2)c(C)s1 (stereo not given) | > 50 µM (inactive) | – |
| Cc1ccc(N=Cc2sc(O)c3ccccc23)c(C)c1 | > 50 µM (inactive) | – |
| COC1=CC(=O)c2c(O)c3c(c(C)c2C1=O)C[C@@]1(O)[C@H](O[C@H]2CC[C@H](O[C@H]4C[C@@](C)(O)[C@H](OC(=O)c5c(C)ccc(C)c5O)[C@H](C)O4)[C@@H](C)O2)C(=O)C(C(C)=O)=C(O)[C@@]1(O)C3=O | – | 5.58 |
| O=S(=O)(c1ccc2c(c1)OCCO2)N(Cc1ccccc1)Cc1nnc(-c2ccccc2)o1 | > 50 µM (inactive) | – |
| CC1CCN(S(=O)(=O)c2ccc(C(=O)Nc3ccc(S(N)(=O)=O)cc3)cc2)CC1 | > 50 µM (inactive) | – |
| O=C(CC(C(=O)Nc1ccc2c(c1)OCO2)C(=O)c1ccccc1)Nc1ccc(Cl)cc1F (stereo not given) | – | 4.81 |
| Cc1noc(C)c1COc1cccc(C(=O)Nc2cc(Cl)ccc2-n2cncn2)c1 | > 50 µM (inactive) | – |
| COc1ccc(OC)c(-c2c(C#N)c(C)nc3c2N2CCC3CC2)c1 | – | 4.60 |
| COc1ccc(CC(=O)Nc2cccc(-c3nc4ncccc4o3)c2)cc1OC | > 50 µM (inactive) | – |
| Fc1cccc(Cn2cc(-c3noc(-c4ccncc4)n3)nn2)c1 | > 50 µM (inactive) | – |
| Cc1ccc(-n2cc(C(=O)NCc3cccnc3)nn2)cc1C | – | 4.58 |
| COc1cc(OC)cc(C(=O)Nc2cnc(-c3ccccc3)nc2)c1 | > 50 µM (inactive) | – |
| CCOCCCn1c(SCC(=O)Nc2ccccc2C(F)(F)F)nc2ccccc2c1=O | – | 4.71 |
| Cc1ccc(C)c(Cn2nnc3c(=O)[nH]c(C4CCN(S(=O)(=O)c5ccc(S(=O)(=O)NC6CC6)cc5)CC4)nc32)c1 | – | 4.46 |
| COc1ccc(NS(=O)(=O)c2cc(NC(=O)CCc3nc4ccccc4s3)ccc2C)cc1 | – | 4.50 |
| COC(=O)c1sc2ccccc2c1NC(=O)c1ccc(Br)s1 | – | 4.67 |

| Structure (SMILES) | IC50 | pIC50 |
| --- | --- | --- |
| Cc1noc(-c2cc(=O)n(CC(=O)NCc3ccccc3F)c3ccccc23)n1 | – | 4.60 |
| O=C(NC(Cc1ccccc1)c1nc2ccccc2[nH]1)c1ccccn1 (stereo not given) | > 50 µM (inactive) | – |
| CCN(CC(=O)Nc1cc(C)on1)c1cccc2ccccc12 | > 50 µM (inactive) | – |
| CO/C=C/C(=O)c1cc2cnc3c(=N)cc(NC(C)=O)c([nH]1)c23 | > 50 µM (inactive) | – |
| Cc1ccccc1NC(=O)Cn1cncc(-c2nc(-c3ccccc3)cs2)c1=O | > 50 µM (inactive) | – |
| COc1ccc(NC(=O)c2cc(-c3cccnc3)n[nH]2)cc1Cl | – | 4.75 |
| Cc1nc(-c2ccc3c(c2)nnn3CCN2CCOCC2)no1 | > 50 µM (inactive) | – |
| CC1CCc2sc(NC(=O)c3ccccc3Oc3ccccc3)c(C(N)=O)c2C1 (stereo not given) | – | 4.50 |
| COc1cccc(/C=C/c2nc(C#N)c(N3CCN(C(=O)c4cccs4)CC3)o2)c1 | > 50 µM (inactive) | – |
| O=c1[nH]c2ccccc2cc1CN(Cc1ccco1)S(=O)(=O)c1ccc(F)cc1 | > 50 µM (inactive) | – |
| COc1ccc(CCNC(=O)COc2ncnc3oc(C)c(C)c23)cc1OC | > 50 µM (inactive) | – |
| CCc1ccc(OCc2nnc(SCC(=O)Nc3ccccc3OC)n2Cc2ccccc2)cc1 | > 50 µM (inactive) | – |
| O=C1CC(O)C(C2=CC(=O)c3c(O)cccc3C2=O)O1 (stereo not given) | – | 5.61 |
| COC(=O)c1ccc(Cn2cnc3ccc(Br)cc3c2=O)o1 | > 50 µM (inactive) | – |
| Cc1c(C)n(-c2ccccc2)c2ncn(CC(=O)N(C)Cc3ccccc3)c(=O)c12 | > 50 µM (inactive) | – |
| COc1ccc(-c2nc(C)c(C(=O)NCc3ccc(S(N)(=O)=O)cc3)s2)cc1 | > 50 µM (inactive) | – |
| O=C(Nc1ccc2c(c1)OCO2)C1CCN(Cc2nc3ccccc3s2)CC1 | > 50 µM (inactive) | – |
| COc1ccccc1/C=C/C(=O)Nc1nc2n(n1)C(c1ccc(Cl)cc1)CC(=O)N2 (stereo not given) | > 50 µM (inactive) | – |
| COc1ccc(NC(=O)c2nnn(-c3ccccc3F)c2C)cc1OC | > 50 µM (inactive) | – |
| CC(=O)Nc1ccc([C@H]2OCC(=O)N(C3CCOCC3)[C@@H]2CO)cc1 | > 50 µM (inactive) | – |
| COc1ccc(CCNC(=O)c2ccc3ccccc3c2)cc1OC | > 50 µM (inactive) | – |
| N#Cc1ccc(NC(=O)c2ccc(S(=O)(=O)N3CCCCC3)cc2)cc1 | > 50 µM (inactive) | – |
| O=C(Nc1nc2c(s1)COCC2)c1cc(-c2ccco2)[nH]n1 | > 50 µM (inactive) | – |
| Cc1ccc(C(=O)Nc2ccc3nccnc3c2)cc1 | > 50 µM (inactive) | – |

| Structure (SMILES) | IC50 | pIC50 |
| --- | --- | --- |
| Cc1cccc(NC(=O)CSc2nnc(-c3n[nH]c4c3CCC4)n2N)c1C | – | 4.75 |
| Cc1nc(-c2noc3ccc(C(=O)Nc4cccnc4)cc23)cs1 | – | 4.37 |
| N#Cc1ccccc1Cn1c(=O)n(CCCCC(=O)NCc2ccco2)c(=O)c2ccccc21 | – | 4.36 |
| COCCN(C1CCN(CCc2ccc(Cl)cc2)CC1)S(=O)(=O)c1cccc2cccnc12 | > 50 µM (inactive) | – |
| CCCCCn1c(Sc2ccc(C)cc2)nc2c1c(=O)[nH]c(=O)n2C | – | 4.45 |
| COCCNC(=O)c1ccn(-c2ccc3ccc(-c4cnn(C)c4)cn23)n1 | > 50 µM (inactive) | – |
| COc1cccc(NC(=O)CCc2c(C)nn(-c3cc(N4CCCCC4)ncn3)c2C)c1 | > 50 µM (inactive) | – |
| Cc1ccccc1C(=O)Nc1ccc(Cc2ccc(NC(=O)c3ccccc3C)c(O)c2)cc1O | > 50 µM (inactive) | – |
| O=C(Cc1noc2ccccc12)N1CCN(c2ccc([N+](=O)[O-])cc2)CC1 | > 50 µM (inactive) | – |
| COc1ccc(NC(=O)c2nnn(-c3ccccc3C)c2C)cc1OC | > 50 µM (inactive) | – |
| CC1(C)CC2CC(C)(CN2Cc2c(O)ccc3ccccc23)C1 (stereo not given) | > 50 µM (inactive) | – |
| COCCn1ccc2nc(C)c(C(=O)Nc3ccc4c(c3)OCCO4)cc2c1=O | > 50 µM (inactive) | – |
| CCn1c(CN2CCCC(c3nc(-c4cccnc4)n[nH]3)C2)nc2ccccc21 (stereo not given) | > 50 µM (inactive) | – |
| CCN(CC)c1cc(C)c2cc(NC(=O)c3ccncc3)ccc2n1 | > 50 µM (inactive) | – |
| COc1cccc(/C=C/C(=O)Nc2ccc(N3CCOCC3)cc2)c1OC | > 50 µM (inactive) | – |
| COC(=O)c1cc2c(ccn2C)n1CC(=O)NC1CC1 | > 50 µM (inactive) | – |
| COc1ccc2ncc3c(-c4ccc(C)cc4)nn(-c4ccc(F)cc4)c3c2c1 | > 50 µM (inactive) | – |
| Cc1ccc(NC(=O)C2CCN(c3cncnc3N3CCCC3)CC2)cc1 | > 50 µM (inactive) | – |
| COC(=O)c1c(C)[nH]c(C(=O)C(C)OC(=O)CCC2CCCC2)c1C (stereo not given) | > 50 µM (inactive) | – |
| Cc1cc(Cl)ccc1NC(=O)c1cc(-c2cccnc2)n[nH]1 | > 50 µM (inactive) | – |
| COc1ccc(-c2nc3n(n2)C(CC(=O)Nc2cccc4ccccc24)C(=O)N3)cc1 (stereo not given) | – | 4.89 |
| O=C(Nc1ccc2c(c1)N(C(=O)C1CCCC1)CC2)c1c(F)cccc1F | > 50 µM (inactive) | – |
| CN1c2ccccc2CN(CC(N)=O)CC1Cc1ccccc1 (stereo not given) | > 50 µM (inactive) | – |

Source: PubChem BioAssay AID1645868 (Buhrlage Lab, Dana-Farber Cancer Institute and Novartis …, 2021)
